We go through six compounds from patent US20200383959A1, “THERAPEUTIC AGENT CONTAINING PYRANODIPYRIDINE COMPOUND” (Eisai R&D Management Co., Ltd., priority 2017, published 2020).

In assay [1] the test system is AMPA receptor. Nature of the assay: AMPA-induced intraneuronal calcium entry-suppressing action, primary culture of embryonic rat cerebral cortex neurons. The settings on record: AMPA-induced increase of intracellular calcium, rat cortical neurons; read-out: IC50 for AMPA inhibition. Type of assay: cell-based. The text has this: [Test Example 1] AMPA-Induced Intraneuronal Calcium Entry-Suppressing Action
With regard to the AMPA receptor inhibitory action of the compounds, AMPA-induced intraneuronal calcium entry-suppressing action was examined using a primary culture system of embryonic rat cerebral cortex neurons.
<Culture conditions> Whole fetuses were removed from the uteri of Wistar rats at embryonic day 18 (Charles River Japan) anesthetized with isoflurane. Whole brains were removed from the whole fetuses, and the cerebral cortex was separated in Leibovitz's L-15 medium, or Hanks balanced salt solution containing 20% fetal bovine serum. The resulting material was treated with trypsin/DNase solution at 37° C. for 45 to 60 minutes. After the serum was added to stop the trypsin reaction, the resulting material was centrifuged at 1200 to 1500 rpm for 3 to 5 minutes. After the supernatant was removed, Neurobasal medium (containing 2% B-27 supplement and the like; hereinafter “Neurobasal medium”) was added, and the cells were uniformly dispersed by gently pipetting. The cell suspension was slightly stirred, and then filtered through a nylon mesh filter. Viable cells were counted using a hemocytometer, and diluted with Neurobasal medium to 8 to 10×10^5 cells/mL. […]
On the day of the assay, the medium was removed and replaced with a calcium measurement solution containing 5 to 10 μmol/L of Fura 2-AM (140 mmol/L sodium chloride, 5 mmol/L potassium chloride, 2 mmol/L magnesium chloride, 3 mmol/L calcium chloride, 24 mmol/L D(+)-glucose, 10 mmol/L HEPES, 1 μmol/L MK-801, pH 7.4), and the cells were treated in a CO2 incubator (5% CO2, 37° C.) for 1 to 2 hours. […] The plates were subsequently placed on the Fluorescence Drug Screening System 6000 (Hamamatsu Photonics K.K.). […] Changes in calcium concentration were measured as the changes in fluorescence intensity at excitation wavelengths of 340 nm and 380 nm (measurement wavelength: 540 nm). The rate of change of the intracellular calcium concentration was calculated in accordance with the following equation: […]
For orientation: A change in cytosolic calcium serves as a functional read-out for many receptors and channels.

The test system of assay [2] is human glioma cell line. The settings on record: Non Patent Literature 34; cited from earlier work.
For assay [3], the system named is pain induced by STZ. Nature of the assay: Rat STZ model, von Frey test. The format is in vivo. The procedure: [Test Example 3] Rat STZ Model
To confirm analgesic effect in an SFN model, an STZ model test with rats was conducted. The effect of the compound on pain induced 2 weeks after administration of STZ was examined.
Seven-week-old male SD rats (Charles River) were used for the test. To STZ aliquoted in advance into shading bottles, ice-cooled physiological saline (Otsuka Pharmaceutical Factory, Inc.) was added to reach 65 mg/mL, and the resultant was gently inversion-mixed with ice-cooling to dissolve STZ. After dissolving, the resultant was stored under ice-cooling, and used within 20 minutes from the initiation of preparation. About 20 hours after fasting, the animals were anesthetize with isoflurane, and the 65 mg/mL STZ solution was administered to each animal from the tail vein with a volume of […] over about 15 seconds by using a 1 mL syringe and a 26G injection needle. After 14 days after the administration of STZ, body weight and pain response before drug administration were measured (see description below on pain response), and animals for each of which the 50% response threshold to mechanical stimulation was 6 g or lower in von Frey test were selected, and grouped so as to provide no difference in 50% response thresholds and body weight among groups.
The compound was prepared for oral administration in DMSO:1 mol/L HCl:Cremophor EL:0.5% methylcellulose=10:5:5:80 to reach an administration volume of 10 mL/kg, and orally administered. As a negative control, only the mixed solvent without the compound (Vehicle) was used.
Evaluation of pain response was performed by using von Frey test under blind conditions, without involving any measurer for pain response in grouping and administration. Measurement of 50% response thresholds by von Frey test was performed in accordance with a method by Chaplan et al. (J Neurosci Methods 1994; 53: 55-63) using von Frey filaments. Each animal was put in a measurement cage with a floor of a metal mesh about 30 minutes before scheduled measurement time, and left to stand to habituate to the environmental change, and after the animal was confirmed to become calm measurement was initiated. Avon Frey filament (bending force: 0.4, 0.6, 1, 2, 4, 6, 8, 15 g; starting from 2 g) was pressed vertically to the center of the sole of the left hind leg for about 6 seconds until the filament bent, and avoidance response (such as putting back the leg) was observed. In accordance with a Dixon's up-down method (Annu Rev Pharmacol Toxicol 1980; 20: 441-462), 50% response thresholds were calculated. Measurement was performed at four points of time: before drug administration on Day 14, and 30 minute, 90 minutes, and 180 minutes after the administration.
The results were represented as mean±standard deviation. Dunnett's multiple comparison test was used for statistical analysis, and a significance level of 5% was used for both sides in all cases.

Assay [4] concerns tremor induced by harmaline. Nature of the assay: Rat harmaline model (balance disorder / tremor score). Conditions: for Tremor score: 20 min before harmaline 20 mg/kg i.p., score 0-3. The format is in vivo. The procedure:
[Test Example 2] Rat Harmaline Model
To confirm tremor-suppressing effect, a harmaline model test with rats was conducted. In this model, balance disorder observed after administration of harmaline serves as an evaluation index (Neuroscience Letter, 590, p 84-90 (2015)).
Four-week-old male SD rats (Charles River) were subjected to the test (two treatments in total, n=5 in each treatment). Balance disorder (one of tremor symptoms) induced by harmaline was used as an evaluation index (the above literature).
The compound was prepared for oral administration in 0.4% methylcellulose/5% Cremophor/5% 1 N hydrochloric acid/10% dimethylsulfoxide solution to reach an administration volume of 5 mL/kg, and orally administered. As a negative control, only the mixed solvent without the compound (Vehicle) was used. Harmaline (Sigma-Aldrich Co. LLC) was diluted with physiological saline (Otsuka Pharmaceutical Co., Ltd.) to prepare 4 mg/mL harmaline solution. Twenty minutes after administration of the compound, the 4 mg/mL harmaline solution was intraperitoneally administered (dose: 20 mg/kg). Balance disorder was observed during 10 minutes from 5 minutes to 15 minutes after the administration of harmaline, and scored in four grades of 0, 1, 2, and 3.
The results were represented as mean±standard deviation. Dunnett's multiple comparison test was used for statistical analysis, and results with p<0.05 were determined to be of statistically significant difference.

The test system of assay [5] is dystonia in the dt^sz model. The settings on record: Non Patent Literature 21; cited from earlier work.
Assay [6] relates to tremor in a harmaline animal model. Conditions: Non Patent Literature 7; cited from earlier work.
The test system of assay [7] is hyperalgesia to mechanical stimulation in STZ models. The settings on record: direct administration to the anterior cingulate cortex; Non Patent Literature 16; cited from earlier work.
The mark [8] stands for this setting: pre-administration, statement in words.

pIC50: −log10 of the molar value.

For the compound `N#Cc1c(F)cccc1-c1cc2c(n(-c3cncnc3)c1=O)COc1cccnc1-2` [Compound (II), 2-fluoro-6-(8-oxo-7-(pyrimidin-5-yl)-7,8-dihydro-6H-pyrano[3,2-b:5,4-b′]dipyridin-9-yl)benzonitrile], the pIC50 (usually −log10 of the IC50, conventionally taken in molar units) in assay [1] is 7.54.
As for `O=C(O)Cn1c(=O)c(=O)[nH]c2cc([N+](=O)[O-])c(-n3ccnc3)cc21` [YM872], the Antitumor effect result in assay [2] is reported as “antitumor effect”.
Consider `N#Cc1c(F)cccc1-c1cc2c(n(-c3cccnc3)c1=O)COc1cc(F)cnc1-2` [Compound (I), 2-fluoro-6-(3-fluoro-8-oxo-7-(pyridin-3-yl)-7,8-dihydro-6H-pyrano[3,2-b:5,4-b′]dipyridin-9-yl)benzonitrile], for which the 50% response threshold stood at 7.3 ± 1.4 g in assay [3] (0.6 mg/kg oral, Day 14, 30 min); 6.6 ± 1.4 g in assay [3] (0.6 mg/kg oral, Day 14, 90 min); 5.2 ± 1.1 g in assay [3] (0.6 mg/kg oral, Day 14, 180 min); 3.6 ± 0.4 g in assay [3] (0.6 mg/kg oral, Day 14, Pre (before drug administration)); 9.5 ± 1.4 g in assay [3] (2 mg/kg oral, Day 14, 30 min); 8.0 ± 1.3 g in assay [3] (2 mg/kg oral, Day 14, 90 min). Besides, the 50% response threshold is given as 6.4 ± 1.1 g in assay [3] (2 mg/kg oral, Day 14, 180 min); 3.6 ± 0.3 g in assay [3] (2 mg/kg oral, Day 14, Pre (before drug administration)); 12.5 ± 1.1 g in assay [3] (6 mg/kg oral, Day 14, 30 min); 12.1 ± 1.5 g in assay [3] (6 mg/kg oral, Day 14, 90 min); 9.6 ± 1.4 g in assay [3] (6 mg/kg oral, Day 14, 180 min); 3.6 ± 0.4 g in assay [3] (6 mg/kg oral, Day 14, Pre (before drug administration)). Also, the Analgesic effect entry in assay [3] (setting [8]) is recorded as “Significant analgesic effect”. In addition, the Tremor score in assay [4] (1 mg/kg oral) is 1.3 ± 0.2; in assay [4] (2 mg/kg oral) it was 0.6 ± 0.3; in assay [4] (4 mg/kg oral) it was 0.4 ± 0.2. Further, the “Effect on tremor scores” value in assay [4] (setting [8]) is “statistically significant reduction of tremor scores”. For the same compound, the pIC50 in assay [1] was 7.71.
On to `NS(=O)(=O)c1cccc2c1c([N+](=O)[O-])cc1[nH]c(=O)c(=O)[nH]c12` [NBQX, 2,3-dioxo-6-nitro-1,2,3,4-tetrahydrobenzo[f]quinoxaline-7-sulfonamide], for which the Anti-dystonia action entry in assay [5] is reported as “anti-dystonia action”. In assay [6], the Effect on tremor entry was “suppresses tremor”.
As to `N#Cc1cc2c(cc1[N+](=O)[O-])=NC(=O)C(=O)N=2` [CNQX, 6-cyano-7-nitroquinoxaline-2,3-dione], in assay [7], the “Effect on fever and hyperalgesia to mechanical stimulation” value was “suppressed”.
Take `Cc1ncc(-n2c3c(cc(-c4cccc(F)c4C#N)c2=O)-c2ncccc2OC3)cn1` [Compound (III), 2-fluoro-6-(7-(2-methylpyrimidin-5-yl)-8-oxo-7,8-dihydro-6H-pyrano[3,2-b:5,4-b′]dipyridin-9-yl)benzonitrile]: in assay [1], the pIC50 is 7.35.
